Reference: PubChem BioAssay (NCI)
Several values for one entry are separate records, joined by “and”; a condition that tells them apart may be missing. Equal entries are not always repeated.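 How tested: cells in 96-well plates exposed to compound for 48 hours at five concentrations. At the GI50, growth is halved. At the TGI there is no net growth.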

Experiments:
Assay in all cases: NCI tumour cell line growth inhibition, 48 h
OVCAR-3 ovarian = tested on: OVCAR-3 ovarian
MDA-MB-435 = tested on: MDA-MB-435
SR leukemia = tested on: SR leukemia
786-0 renal = tested on: 786-0 renal
OVCAR-8 ovarian = tested on: OVCAR-8 ovarian
A549 NSCLC = tested on: A549 NSCLC
NCI-H460 lung = tested on: NCI-H460 lung
UACC-62 melanoma = tested on: UACC-62 melanoma
UACC-257 melanoma = tested on: UACC-257 melanoma
OVCAR-5 ovarian = tested on: OVCAR-5 ovarian

Row | SMILES | GI50 (OVCAR-3 ovarian) | TGI (OVCAR-3 ovarian) | GI50 (MDA-MB-435) | TGI (MDA-MB-435) | GI50 (SR leukemia) | TGI (SR leukemia) | GI50 (786-0 renal) | TGI (786-0 renal) | GI50 (OVCAR-8 ovarian) | TGI (OVCAR-8 ovarian) | GI50 (A549 NSCLC) | TGI (A549 NSCLC) | GI50 (NCI-H460 lung) | TGI (NCI-H460 lung) | GI50 (UACC-62 melanoma) | TGI (UACC-62 melanoma) | GI50 (UACC-257 melanoma) | TGI (UACC-257 melanoma) | GI50 (OVCAR-5 ovarian) | TGI (OVCAR-5 ovarian)
1 | O=C(Nc1ccc(Cl)c([N+](=O)[O-])c1)Nc1nc2ccccc2s1 | 3.27 µM | 10.6 µM | 2.73 µM | 8.15 µM | 3.94 µM | 16.4 µM | 10.3 µM | 26.8 µM | 3.33 µM | 17.7 µM | 3.37 µM | 13 µM | 2.93 µM | 9.45 µM | 4.05 µM | 18 µM | 2.4 µM | 6.99 µM | 4.49 µM | 19.3 µM
2 | COc1ccc(C(=O)Cn2c(C(=O)c3ccc(OC)cc3)nc3ccccc32)cc1 | 2.03 µM | > 100 µM | 0.284 µM | > 34.4 µM | 0.557 µM | – | 4.54 µM | > 100 µM | 5.85 µM | > 100 µM | 5.47 µM | > 100 µM | 3.73 µM | > 100 µM | 3.47 µM | > 100 µM | 53 µM | > 100 µM | > 25.1 µM | > 100 µM
3 | COc1cc(/C=C(/C)[N+](=O)[O-])ccc1O | 1.96 µM and 1.61 µM | 3.46 µM and 3.17 µM | 2.16 µM and 1.64 µM | 6.33 µM and 4.4 µM | 1.12 µM | 11.2 µM | 1.79 µM and 1.94 µM | 3.26 µM and 3.51 µM | 2.86 µM and 2.73 µM | 9.5 µM and 7.93 µM | 3.94 µM and 2.5 µM | 14.6 µM and 7.07 µM | 2.52 µM and 2.22 µM | 7.15 µM and 6.05 µM | 1.77 µM and 1.8 µM | 3.7 µM and 3.71 µM | 1.66 µM and 1.61 µM | 3.39 µM and 3.25 µM | 3.47 µM and 2.66 µM | 10.1 µM and 7.96 µM
4 | Cc1ccc(Nc2nc(NCCO)c3ccccc3n2)cc1C | 11 µM | 23 µM | 4 µM | 15.9 µM | 2.28 µM | 6.08 µM | 6.94 µM | 20.1 µM | 5.44 µM | 25.9 µM | 5.4 µM | 22.7 µM | 4.44 µM | 16.7 µM | 12.1 µM | 25.3 µM | 2.14 µM | 7.37 µM | 4.29 µM | 16.4 µM
5 | CCn1c(=O)c(-c2ccn[nH]2)cc2c(C)nc(N)nc21 | 1.15 µM | > 100 µM | 1.69 µM | > 100 µM | 1.64 µM | > 100 µM | 0.511 µM | 5.59 µM | 2.51 µM | 61.7 µM | 1.99 µM | 7.41 µM | 1.4 µM | > 100 µM | 0.687 µM | 3.54 µM | 1.38 µM | 6.24 µM | 0.539 µM | 10.6 µM
6 | Cc1ccc(C)c(NC(=O)C(=O)C(c2cnc3ccc([N+](=O)[O-])cc3n2)[N+](=O)[O-])c1 (configuration not stated) | – | > 100 µM | – | > 100 µM | – | > 100 µM | – | > 100 µM | – | 48.2 µM | – | > 100 µM | – | > 100 µM | – | > 100 µM | – | > 100 µM | – | > 100 µM
7 | Oc1ccc(C(c2ccccc2)(c2ccccc2)c2ccccc2)cc1 | 16.6 µM | 37.6 µM | 19.9 µM | 38.3 µM | 25.4 µM | 56.9 µM | 14.4 µM | 29.7 µM | 18.2 µM | 35.9 µM | 12.8 µM | 29 µM | 15.3 µM | 48.1 µM | 16 µM | 30.6 µM | 15.5 µM | 31.3 µM | 14.4 µM | 28.1 µM
8 | CN(C)CCCCN1CCc2c(n(C)c3ccccc23)C1=O | – | > 100 µM | – | 33.9 µM and 35 µM | 53.3 µM and 12.7 µM | > 100 µM and 35.9 µM | – | > 79.7 µM and 49.4 µM | – | > 100 µM | – | > 93.5 µM | 54.6 µM and 24.2 µM | > 87.1 µM and 49.8 µM | – | 54.3 µM and 31.8 µM | – | 28.7 µM and 31.4 µM | 54.1 µM and 24.2 µM | > 78.6 µM and 67.3 µM
9 | O=C(Nc1ccc(-c2nc3cc4ccccc4cc3[nH]2)cc1)c1cccc(Br)c1 | 3.64 µM | 10.3 µM | 4.72 µM | 20.4 µM | 2.34 µM | 8.66 µM | 5.48 µM | 18 µM | 3.43 µM | 18.9 µM | 2.83 µM | 10.6 µM | 3.36 µM | 13 µM | 15.8 µM | 30.5 µM | 21 µM | 52.3 µM | 22.6 µM | 68.3 µM
10 | Nc1c(C(=O)Nc2ccccc2)sc2nc3c(cc12)CCCCCC3 | 0.319 µM | 1.07 µM | 0.068 µM | 0.266 µM | 0.138 µM | 30.9 µM | 0.551 µM | 3.93 µM | 0.478 µM | 16.7 µM | 0.467 µM | 20.1 µM | 0.352 µM | 3.91 µM | 0.428 µM | 12.9 µM | 3.1 µM | 28.9 µM | 0.699 µM | 16.9 µM
